Source: ChEMBL document CHEMBL6127049, “Discovery of the selective and nanomolar inhibitor of DPP-4 more potent than sitagliptin by structure-guided rational design” (Eur J Med Chem, 2024)
Activity calls are given as the source filed them. No cut-off for these calls is given here.

Legend:
[1] = system: Rattus norvegicus; experiment: Antihyperlipidemic effect in STZ-induced type 2 diabetes male Wistar albino rat model assessed as triglyceride level at 10 mg/kg, po measured after 4 weeks (reference value: 190.23 +/- 4.37 mg/dL); type: functional
[2] = system: Rattus norvegicus; experiment: Antihyperlipidemic effect in STZ-induced type 2 diabetes male Wistar albino rat model assessed as total cholesterol level at 10 mg/kg, po measured after 4 weeks (reference value: 227.04 +/- 4.10 mg/dL); type: functional
[3] = system: Rattus norvegicus; experiment: Anti-diabetic activity in normal Wistar rat model assessed as blood glucose level at 20 mg/kg, po followed by treated administered 3 mg/kg orally measured after 30 mins by Oral glucose tolerance test (reference value: 176.14 + /- 4.04 mg/dL); type: functional; conditions: 0.5 h
[4] = target: Dipeptidyl peptidase 4 (Homo sapiens, UniProt P27487); experiment: Inhibition of DPP4 (unknown origin) assessed as hydrolysis rate using Gly-pro-p-nitroanilide as substrate measured after 20 mins incubation by fluorometric assay
[5] = system: Rattus norvegicus; experiment: Anti-diabetic activity in normal Wistar rat model assessed as blood glucose level at 20 mg/kg, po followed by treated administered 3 mg/kg orally measured after 90 mins by Oral glucose tolerance test (reference value: 134.11 + /- 4.64 mg/dL); type: functional; conditions: 1.5 h
[6] = Acute toxicity in Balb/C mouse assessed as morphological changes in nose at 1250 to 2000 mg/kg, po; type: organism-based; conditions: in vivo, dose 1250-2000 mg/kg
[7] = system: Rattus norvegicus; experiment: Anti-diabetic activity in STZ-induced type 2 diabetes male Wistar albino rat model assessed as fasting blood glucose level at 20 mg/kg, po measured on day 1; type: functional; conditions: time 1 day
[8] = system: Rattus norvegicus; experiment: Antihyperlipidemic effect in STZ-induced type 2 diabetes male Wistar albino rat model assessed as LDL level at 20 mg/kg, po measured after 4 weeks (reference value: 184.65 +/- 4.57 mg/dL); type: functional
[9] = system: Rattus norvegicus; experiment: Reduction of alkaline phosphatase (ALP) level in STZ-induced type 2 diabetes male Wistar albino rat model at 20 mg/kg, po measured after 4 weeks by hepatic function test; type: functional, organism-based

Dipeptidyl peptidase 4, sequence (P27487 whole entry): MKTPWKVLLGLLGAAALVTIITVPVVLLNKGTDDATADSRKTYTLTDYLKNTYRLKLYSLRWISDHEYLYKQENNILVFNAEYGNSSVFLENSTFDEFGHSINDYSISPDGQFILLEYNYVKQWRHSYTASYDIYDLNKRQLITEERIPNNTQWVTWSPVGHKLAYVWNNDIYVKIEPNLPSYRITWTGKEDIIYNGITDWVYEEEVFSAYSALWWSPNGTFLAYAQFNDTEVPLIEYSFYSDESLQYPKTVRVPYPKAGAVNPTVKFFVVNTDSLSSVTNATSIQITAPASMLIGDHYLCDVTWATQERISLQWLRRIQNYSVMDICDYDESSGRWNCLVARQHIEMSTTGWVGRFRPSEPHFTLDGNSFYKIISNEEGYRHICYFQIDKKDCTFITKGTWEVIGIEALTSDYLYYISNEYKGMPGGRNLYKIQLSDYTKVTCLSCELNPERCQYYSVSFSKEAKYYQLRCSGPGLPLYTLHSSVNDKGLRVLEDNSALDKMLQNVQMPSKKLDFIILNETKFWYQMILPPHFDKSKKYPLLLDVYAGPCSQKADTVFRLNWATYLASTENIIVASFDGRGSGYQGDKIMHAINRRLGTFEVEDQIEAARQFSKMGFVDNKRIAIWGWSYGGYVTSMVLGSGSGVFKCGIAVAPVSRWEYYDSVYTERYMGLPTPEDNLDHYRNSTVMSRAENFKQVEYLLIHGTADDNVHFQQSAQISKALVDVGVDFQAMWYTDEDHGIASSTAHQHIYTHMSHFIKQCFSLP

CC1=C([N+](=O)[O-])C(c2ccc(F)c(F)c2)N=C(N)N1C(=O)CN1Cc2cn(S(C)(=O)=O)nc2C1 (centres undefined)
Activity [1]: 150.32 mg/dL
Activity [2]: 153.02 mg/dL
Activity [3]: 119.42 mg/dL
IC50 [4]: 0.055 µM
Activity [5]: 110.57 mg/dL
Activity [6]: Non-Toxic
Activity [7]: 294 mg/dL
Activity [8]: 114.54 mg/dL
Activity [9]: Active
